According to PubChem BioAssay AID743417 (Broad Institute, 2014):
Inconclusive results are not listed. Calls of active or inactive are those of the source.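 How the source made its calls: active means compounds lowering the luciferase signal with a fitted half-maximal dose at most twice their top valid dose (cut at about 30 µM in these data); inconclusive means flat fits with moderate signal loss, or poor fits; inactive means the rest.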

system: Clone20 osteoblast Shn3 3'UTR firefly luciferase, 24 h; assay: Schnurri-3 3'UTR-luciferase signal suppressors – cell-based, Clone20 osteoblasts, luminescence, dry powder, set 2, dose response (AID 743417)

Row | SMILES | AC50
1 | O=C(Nc1cccc(Cl)c1Cl)C1CC(=O)N(c2ccc(Br)cc2)C1 (centres undefined) | 8230 nM
2 | c1ccc(CCNc2ccnc3cc4ccccc4cc23)cc1 | 1620 nM
3 | CSC1SCC2C(=O)N(C)C(C(C)C)C(=O)OCC(NC(=O)c3cnc4ccccc4n3)C(=O)NC(C)C(=O)N(C)C1C(=O)N(C)C(C(C)C)C(=O)OCC(NC(=O)c1cnc3ccccc3n1)C(=O)NC(C)C(=O)N2C (centres undefined) | < 260 nM
4 | Cc1cc(Nc2cccc(Cl)c2)nc(NCc2ccccc2)n1 | 1640 nM
5 | Cc1sc2ncnc(N3CCN(S(=O)(=O)c4ccccc4)CC3)c2c1C | 2300 nM
6 | Cc1ccc(C(=O)/C=C/c2ccc(-c3ccc(C)cc3)o2)cc1 | 2790 nM
7 | NS(=O)(=O)c1ccc(CCNCc2cc(Cl)ccc2OCc2ccccc2)cc1 | 4460 nM
8 | Oc1c(CN2CCN(c3ccc(F)cc3)CC2)cc(Cl)c2cccnc12 | 1320 nM
9 | NS(=O)(=O)c1ccc(CCNCc2cc(Br)ccc2OCc2ccccc2F)cc1 | 4650 nM
10 | CCCCCCNC(=O)O[C@H]1Cn2c(=O)ccc(=O)n2[C@@H]2CN(S(=O)(=O)c3ccc(C)cc3)C[C@]12O | 14100 nM
11 | COC(=O)C1=C(c2ccc(-c3ccccc3)c(F)c2)C[C@@H]2CC[C@H]1N2C(=O)NCC1CC1 | 4320 nM
12 | Nc1nonc1C(=O)NCCNCc1cc(Br)ccc1OCc1ccccc1F | 2500 nM
13 | CCCOC(=O)c1[nH]c2c(c1C)C(=O)CC(c1cc(OC)c(OC)c(OC)c1)C2 (centres undefined) | 1920 nM
14 | Cc1cc(S(=O)(=O)c2ccc([N+](=O)[O-])cn2)ccc1Br | 3690 nM
15 | CC(=O)c1cn(CCOc2cc(C)ccc2C)c2ccccc12 | 1180 nM
16 | O=S1(=O)C=C(Sc2nc3cc(Cl)ccc3o2)c2ccccc21 | < 260 nM
17 | Cc1cc(NC(=O)CCN2CCN(C/C=C/c3ccccc3)CC2)ccc1Br | 10200 nM
18 | CC(C)(C)c1ccc(CN(Cc2ccccc2)C(c2ccccn2)c2nnnn2C(C)(C)C)cc1 (centres undefined) | 13500 nM
19 | CCN(C(=O)C1CCN(c2nc(-c3ccc(OC)cc3)no2)CC1)c1ccc(OC)cc1 | 3170 nM
20 | Nc1nc(Cl)cc(N2CCC(c3cc(-c4ccc(Cl)cc4Cl)n[nH]3)CC2)n1 | 4940 nM
21 | COc1ccccc1-n1cc([C@@H]2C[C@H]3CN(c4ccccc4)C(=O)[C@]34CCCN24)cn1 | 1460 nM
22 | COc1ccc(NC(=O)/C(Cl)=C(/Cl)S(=O)Cc2ccc(Cl)cc2)cn1 (centres undefined) | 1340 nM
23 | CC(=O)c1ccc(N2CCC(c3cc(-c4ccc(Cl)cc4)n[nH]3)CC2)c([N+](=O)[O-])c1 | 5000 nM
24 | Cc1cc(C(=O)COc2cccnc2[N+](=O)[O-])c(C)n1-c1ccccc1 | 34800 nM
25 | Cc1ccc(NC(=O)c2nc(S(=O)(=O)Cc3ccccc3)ncc2Cl)cc1 | 3420 nM
26 | O=C(Nc1ccccc1Cl)/C(Cl)=C(\Cl)S(=O)c1ccccc1 (centres undefined) | 438 nM

Row | SMILES | AC50
27 | C=CCSc1nc2ccccc2n1C(=O)/C=C/c1ccc(OC)c(OC)c1 | 1310 nM
28 | Cc1c(Cl)sn(-c2ccc(Cl)cc2)c1=O | 728 nM
29 | C=CCn1c(SCC(=O)c2[nH]c(C)c(C(=O)OC)c2C)nc2scc(-c3ccc(OC)c(OC)c3)c2c1=O | 2010 nM
30 | O=C(c1ccc(Cl)cc1)C1CCCN(Cc2cccc3ncccc23)C1 (centres undefined) | 4520 nM
31 | O=C(c1ccc(S(=O)(=O)c2ccc(F)cc2)c([N+](=O)[O-])c1)N1CCCCCC1 | 2380 nM
32 | COc1cccc(CNCCc2c[nH]c3ccccc23)c1OCc1ccccc1 | 4090 nM
33 | O=C(c1cc2sccc2n1Cc1ccccc1)N1CCN(c2nc3ccccc3s2)CC1 | 1090 nM
34 | Cn1nc(CC(=O)Nc2ccc3c(c2)OCCO3)c2ccccc2c1=O | 899 nM
35 | COc1ccc(-n2nnnc2S(=O)(=O)CC(=O)N2CCCCC2)cc1 | 5440 nM
36 | O=C(c1cc2nc(-c3ccc(F)cc3)cc(C(F)(F)F)n2n1)N1CCCCC1c1cccnc1 (centres undefined) | 2370 nM
37 | C=CCn1c(C)cc(C2=NNC(=NCC)SC2)c1C | < 260 nM
38 | Cc1ccc(C(c2cc(Cl)c3cccnc3c2O)N2CCN(C)CC2)cc1 (centres undefined) | 5540 nM
39 | CC(=O)OCCCNc1cc(Sc2ccc(Cl)cc2)c2nonc2c1[N+](=O)[O-] | 1140 nM
40 | OC[C@@H]1CN(Cc2ccc(-c3ccccc3)cc2)C[C@H](n2cnc3c(NCc4ccc(F)cc4)ncnc32)O1 | 1580 nM
41 | COc1ccc(-c2cc(N)n(S(=O)(=O)c3c(F)c(F)c(F)c(F)c3F)n2)cc1OC | 896 nM
42 | CCN(CCCl)c1cc(CN(C)C)cc(NC(=O)c2ccc(C(=O)Nc3cc(CN(C)C)cc(N(CC)CCCl)c3)cc2)c1 | 2650 nM
43 | CN(C)CC(C(=O)Cc1ccccc1)c1ccccc1 (centres undefined) | 7810 nM
44 | Fc1ccc2[nH]c3c(N4CCSCC4)ncnc3c2c1 | 2760 nM
45 | CC(C)(C)Nc1nc(-c2ccccn2)nc2ccccc12 | 1860 nM
46 | COc1ccc(NS(=O)(=O)c2ccc(OC)c(N(C)S(=O)(=O)c3ccc(Cl)cc3)c2)cc1 | 2920 nM
47 | O=C(c1ccc2c(=O)n(-c3ccccc3)c(=S)[nH]c2c1)N1CCCCC1 | 1440 nM
48 | O=C(CSc1nnc(-c2ccc(Cl)cc2Cl)n1C1CCCCC1)N1CCCC1 | > 70000 nM (inactive)
49 | Cc1ccc(S(=O)(=O)c2ncccc2[N+](=O)[O-])cc1 | 1910 nM
50 | CC(C)(C)c1ccc(C(O)CCCN2CCC(C(O)(c3ccccc3)c3ccccc3)CC2)cc1 (centres undefined) | 16700 nM
51 | O=C(OCc1ccccc1)N(CCCCN(CCCNCc1ccccc1)C(=O)OCc1ccccc1)CCCNCc1ccccc1 | 5360 nM
52 | Cc1ccc(C(=O)Nc2nc(-c3ccccn3)cs2)cc1S(=O)(=O)N1CCOCC1 | 838 nM

Row | SMILES | AC50
53 | Cc1ccc(NC(=O)Cc2nn(C)c(=O)c3ccccc23)cc1F | 730 nM
54 | CC(C)c1nc(SCC(=O)Nc2cccc(C(F)(F)F)c2)c2c(=O)n(C)c(=O)n(C)c2n1 | 2700 nM
55 | Cc1nc2scc(C)n2c(=O)c1S(=O)(=O)Nc1ccc(N2CCOCC2)c(Cl)c1 | 1670 nM
56 | Cc1ccc(S(=O)(=O)N2CCN(C(=O)C3CCN(c4ncnc5sc(C)c(C)c45)CC3)CC2)c(C)c1 | 2120 nM
57 | CN(c1ccccc1)S(=O)(=O)c1cccc(NC(=O)c2ccc3ncsc3c2)c1 | 17200 nM
58 | CC(C)CC(=O)NC(=S)Nc1ccc(N2CCN(C(=O)c3cccs3)CC2)cc1 | 2540 nM
59 | CC(=O)Nc1ccc(OCC(=O)Nc2ccc(Cl)c(S(=O)(=O)N3CCOCC3)c2)cc1 | 1590 nM
60 | CC(C)Cc1ccc(C(C)C(=O)Nc2ccccc2O)cc1 (centres undefined) | 1890 nM
61 | CN(Cc1nccn1C)C(=O)c1cc(COc2ccc3ncccc3c2)on1 | 6970 nM
62 | OCCCNc1nccc(-c2cc(Nc3cccc(Cl)c3)ncn2)n1 | 2610 nM
63 | CCOc1cc2c(cc1OCC)-n1cccc1C(c1ccc(C(C)C)cc1)NC2 (centres undefined) | 7220 nM
64 | O=C(c1cc(COc2cccc3cnccc23)on1)N1CCCC(CCCO)C1 (centres undefined) | 519 nM
65 | CC[C@H]1CN2CCc3cc(OC)c(OC)cc3C2C[C@@H]1C[C@H]1NCCc2cc(OC)c(OC)cc21 (some centres undefined) | < 260 nM
66 | COc1cc(OC)c(OC)cc1CCC(C)NCCC(c1ccccc1)c1ccccc1 (centres undefined) | 3990 nM
67 | Oc1ccc(CN2CCc3ccccc3C2)c2cccnc12 | 673 nM
68 | O=C(/C=C/c1ccc(OCc2ccccc2)c(OCc2ccccc2)c1)c1cccnc1 | 5190 nM
69 | CCOC(=O)C1CCN(C(=O)c2sc3nc(C)nc(N4CCC(C)CC4)c3c2C)CC1 | 5260 nM
70 | CN1CCN(S(=O)(=O)c2ccc(Sc3nnnn3-c3ccccc3)c([N+](=O)[O-])c2)CC1 | 3900 nM
71 | CCOC(=O)Cc1csc(SCC(=O)c2c(N)n(CC(C)C)c(=O)n(C)c2=O)n1 | 2350 nM
72 | Cc1ccc(-n2cc(CNCCCn3ccnc3C)c(-c3ccc(F)cc3)n2)cc1 | 20600 nM
73 | COc1cc(CN2CCc3ccccc3C2)ccc1O | 912 nM
74 | Cc1cccc(Nc2nc(NCc3ccco3)c3ccccc3n2)c1 | 2050 nM
75 | CC(=O)N1c2ccc(S(=O)(=O)N3CCC(C(=O)N4CCN(c5cc(Cl)ccc5C)CC4)CC3)cc2CC1C (centres undefined) | 3100 nM
76 | Cc1cc2c(cc(C(=O)OC(C(=O)NC3CCCCC3)C(C)C)n2C)o1 (centres undefined) | 5900 nM
77 | CN(C)c1ccc(C=Cc2ccnc3c(O)cccc23)cc1 | 1430 nM
78 | CS(=O)(=O)c1ccc(C(=O)OCC(=O)NCc2cccs2)cc1[N+](=O)[O-] | 2070 nM

Row | SMILES | AC50
79 | C=CCC[C@H](Cc1ccc(F)cc1)C(=O)OC[C@@H](Cc1c[nH]c2ccccc12)NC(=O)[C@H](CC=C)CC(=O)N(CCO)Cc1ccccc1 | 8660 nM
80 | Cc1oc(=O)c(NC(=O)c2ccc(Cl)cc2)cc1C(=O)c1ccccc1 | 32100 nM
81 | COc1ccc(CNc2ncnc3sccc23)cc1OC | 2340 nM
82 | COc1ccc(C(=O)/C=C/C(=O)N(CC(=O)NCCC(C)C)Cc2cccs2)c(O)c1 | 3490 nM
83 | Cc1ccc(-n2c(Cl)c(Cl)nc(Cl)c2=O)cc1 | 1770 nM
84 | Cn1c(=O)c2c(nc(NCc3ccco3)n2CCc2ccccc2)n(C)c1=O | 2340 nM
85 | COc1ccc(NS(=O)(=O)c2ccc(NC(=O)C(CCSC)NC(N)=O)cc2)cc1 (centres undefined) | > 70000 nM (inactive)
86 | CCN(CC)S(=O)(=O)c1ccc(N2CCOCC2)c(NC(=O)c2nn(C(C)C)c(=O)c3ccccc23)c1 | 15600 nM
87 | CCc1c(C)nc2ncnn2c1N1CCN(S(=O)(=O)c2ccc(OC)cc2)CC1 | 1160 nM
88 | Cc1ccc(NN2C(=O)C=C(c3ccc(Cl)cc3)C2=O)cc1 | 6530 nM
89 | COc1ccccc1-c1cc(C(F)(F)F)nc(S(C)(=O)=O)n1 | 4060 nM
90 | Cc1ccc(Nc2c(-c3ccccn3)nc3cccc(C)n23)cc1 | 1900 nM
91 | Cc1ccc(CS(=O)(=O)c2ncc(Cl)c(C(=O)Nc3ccc(OC(F)F)cc3)n2)cc1 | 2340 nM
92 | COc1ccc(CNC(=O)c2cc3c(C)nc4ccccc4c3o2)c(OC)c1 | 3220 nM
93 | CC(=O)c1cccc(NS(=O)(=O)c2ccc(-c3cnc(C4CC4)o3)cc2)c1 | 5000 nM
94 | CCCCC(=O)NC(c1ccccc1Cl)c1ccc2cccnc2c1O (centres undefined) | 1120 nM
95 | Cc1onc(-c2ccccc2Cl)c1C(=O)N1CCC(Cc2ccccc2)CC1 | 2290 nM
96 | CCOc1cc(/C=C2\C(=O)ON=C2C)ccc1OCc1ccccc1 | 10400 nM
97 | C[n+]1c2n(c3ccccc31)N=C(c1cc(C(C)(C)C)c(O)c(C(C)(C)C)c1)CS2 | 5920 nM
98 | O=C1/C(=C/c2ccccc2)C[C@@]2(O)[C@H]3Cc4ccc(O)c5c4[C@@]2(CCN3CC2CC2)C1O5 (some centres undefined) | 4640 nM
99 | O=C(NNc1ccnc2cc(Cl)ccc12)C1CCCCC1 | < 260 nM
100 | COc1ccccc1-c1c(-c2ccc(O)cc2O)n[nH]c1C(F)(F)F | 708 nM
101 | CC(=O)NC(c1cc(Cl)c2cccnc2c1O)C(C)C (centres undefined) | 2960 nM
102 | Cc1nc2ccccc2cc1OCc1ccc(F)cc1 | 1700 nM
103 | O=C(c1ccccc1)c1ccccc1N1C(=O)C=CC1=O | 16700 nM
104 | Cc1cc(N2CCCCC2)nc(NCc2ccccc2)n1 | 4010 nM
